# Legend:
# HEK293T cells = assay: Cell viability of HEK293T cells (CCK-8 assay); format: cell-based, human; settings: CA 1 mM, CCK-8, 6 hours treatment
# hTRPV3 I637A mutant = target: T1, hTRPV3 I637A mutant (Homo sapiens, UniProt Q8NET8, I637A); assay: Whole-cell patch-clamp of hTRPV3 I637A mutant in HEK293T cells; format: cell-based
# T1 construct: expressed in transfected cells; host or cells: HEK293T
# T1 sequence (Q8NET8 1-790 I637A): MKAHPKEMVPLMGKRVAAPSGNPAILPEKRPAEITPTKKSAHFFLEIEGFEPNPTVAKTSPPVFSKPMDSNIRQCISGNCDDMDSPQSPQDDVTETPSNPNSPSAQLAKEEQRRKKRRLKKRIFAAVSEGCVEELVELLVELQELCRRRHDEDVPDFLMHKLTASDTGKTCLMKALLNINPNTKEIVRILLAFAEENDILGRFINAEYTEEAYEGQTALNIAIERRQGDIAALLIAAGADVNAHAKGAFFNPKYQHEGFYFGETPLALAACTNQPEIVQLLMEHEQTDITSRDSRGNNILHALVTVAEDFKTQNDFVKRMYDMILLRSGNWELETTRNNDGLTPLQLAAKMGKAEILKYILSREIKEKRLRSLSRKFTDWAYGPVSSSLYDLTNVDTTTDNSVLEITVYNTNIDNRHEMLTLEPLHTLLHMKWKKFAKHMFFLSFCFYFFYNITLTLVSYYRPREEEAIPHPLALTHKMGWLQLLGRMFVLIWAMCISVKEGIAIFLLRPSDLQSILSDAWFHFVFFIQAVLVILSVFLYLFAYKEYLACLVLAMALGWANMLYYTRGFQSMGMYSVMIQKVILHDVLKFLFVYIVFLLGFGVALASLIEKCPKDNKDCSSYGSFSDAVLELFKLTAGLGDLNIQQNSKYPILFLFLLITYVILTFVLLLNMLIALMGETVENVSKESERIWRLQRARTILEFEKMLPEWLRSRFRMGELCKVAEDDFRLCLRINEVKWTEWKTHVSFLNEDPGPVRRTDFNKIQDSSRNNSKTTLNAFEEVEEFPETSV
structure (smiles),measurement,setting,value
"O=C(O)/C=C/c1ccc(O)c(O)c1 [CA, caffeic acid]",cytotoxicity (cell viability),HEK293T cells,did not cause any noticeable cytotoxicity
same,IC50,"hTRPV3 I637A mutant; I637A hTRPV3, 50 μM 2-APB, +80 mV, Hill fit, read-out: IC50, inhibition of I637A mutant outward currents",306 ± 61.1 µM
same,channel current inhibition by 500 μM CA compared to WT,"hTRPV3 I637A mutant; I637A mutant, 50 μM 2-APB, 500 μM CA",significantly diminished
